Assay results taken from US12550899B2, “Topramezone derivative and use thereof” (priority 2023, dated 2026).

Test system: corn
Assay: Corn safety laboratory test, visual observation and overall conclusion
Assay type: in vivo
Method: Three corn varieties: Zhengdan 958, white waxy corn, and sweet corn (Runhua sweet corn).
The soil used for the test was a mixture of surface 20 cm loam and vermiculite, mixed in a volume ratio of 3:1 to form a culture soil. The test corn was cultured in a glass greenhouse with a temperature ranging from 25° C. to 35° C. and under natural light.
A measured quantity of corn seeds were sown in plastic pots with a diameter of 15 cm, and covered with 2-3 cm of soil. The ports were then placed in enamel trays filled with water, and watered by bottom irrigation. After sowing, the pots were transferred to the glass greenhouse for cultivation and growth.
In the corn safety test, dosages were set for the two Compounds (Compound I of the present invention and Compound II of the present invention) and the control herbicide Topramezone, which were 15, 30, 60, and 120 grams of active ingredient per hectare respectively. In addition, a blank control was also prepared.
The required amount of the herbicide was accurately measured out, an appropriate amount of emulsifier and organic solvent were added to dissolve the herbicide, and then a certain amount of water was added therein until the herbicide was diluted to the required dosage by using the serial dilution method for standby.
Corn stems and leaves were uniformly sprayed at the 3-4-leaf stage.
The ASS-3 automatic control spraying system with a fan-shaped nozzle was used indoors for herbicide application. Depending on the nozzle pressure and flow rate, 50 mL of herbicide solution was applied to a spraying area of 1.1 m^2 (which was equivalent to the water consumption of 30 L per mu). The system's operating speed was calibrated. The plastic pots to be treated were arranged evenly on the spraying platform to ensure uniform treatment. The spray pressure was set to 0.35 MPa, and the flow rate of the fan-shaped nozzle was set to 800 mL/min. The spraying was carried out in sequence from the low dosage to the high dosage. Each treatment was repeated three times.
The herbicide was applied once. After spraying, the pots were air-dried for one day and then placed in the glass greenhouse. Regular watering was conducted to maintain moisture.
After application of the herbicide, whether there were any phytotoxic symptoms in the corn for each treatment was recorded. If yes, the phytotoxicity symptoms and grade were recorded in detail. 15 days after application, the fresh weight of the corn in each treatment was measured and the fresh weight control efficacy was calculated to assess the safety of the herbicide on the corn.

| Compound | Visual observation of corn (3 to 7 days after application) | Visual observation of corn (10 days after application) | Visual observation of corn (15 days after application) | Overall safety for corn (Zhengdan 958, waxy corn and sweet corn) | Visual observation of corn (in vivo) |
| --- | --- | --- | --- | --- | --- |
| Cc1c(C(=O)c2cnn(C)c2O)ccc(S(C)(=O)=O)c1C1=NOCC1 [Topramezone] | safe for corn | safe for corn | basically growing normally | high safety levels | – |
| COC(=O)OC(C)Oc1c(C(=O)c2ccc(S(C)(=O)=O)c(C3=NOCC3)c2C)cnn1C (centres unmarked) [Compound I, 1-((4-(3-(4,5-dihydroisoxazol-3-yl)-2-methyl-4-(methylsulfonyl)benzoyl)-1-methyl-1H-pyrazol-5-yl)oxy)ethyl methyl carbonate] | – | – | – | – | all normal |
